As a reminder, the half-life is the time in which the quantity being followed falls by half. By AUC is commonly meant the area under the concentration-time curve, a measure of exposure. In general, Cmax refers to the maximum level reached in the sampled fluid or tissue. By Tmax is commonly meant the time from dosing to the highest level.

The record followed here is ChEMBL document CHEMBL1154663, “Synthesis, crystallization, and biological evaluation of an orally active prodrug of gemcitabine” (J Med Chem, 2009).

Series [1] can be described thus: Stability in CD1 mouse small intestine homogenate assessed as hydrolysis rate minute at 96 uM. Type of series: ADME, tissue-based. The settings on record: tissue homogenate.
A short description of series [2]: Stability in human small intestine homogenate assessed as hydrolysis rate at 96 uM. Conditions: tissue homogenate. Type of series: ADME, tissue-based.
A short description of series [3]: Stability in CD1 mouse small intestine homogenate assessed as hydrolysis rate after 30 mins at 96 uM. It is filed as ADME, tissue-based. The settings on record: read-out: Activity.
The nature of series [4]: Stability in human small intestine homogenate assessed as hydrolysis rate after 30 mins at 96 uM. Type of series: ADME, tissue-based. Conditions: read-out: Activity.
Series [5] can be described thus: Stability in human Caco-2 cell homogenate assessed as half life. It is filed as ADME, Colon.
Series [6] deals with Blood. As to the kind of experiment: Drug level in CD1 mouse portal blood assessed as gemcitabine level at 14.3 mg/kg, po after 5 mins. Type of series: ADME, organism-based. Further details: dose 14.3 mg/kg, route oral. Conditions: in vivo.
Series [7] deals with HCT-116. As to the kind of experiment: Antitumor activity in human HCT116 cells xenografted CD1 mouse assessed as maximum tumor reduction at 160 mg/kg, ip administered as total 4 doses for every 3 days measured after 6 weeks. Type of series: functional. Further details: scale not given: the % may be the effect or the level left. Conditions: route intraperitoneal. On the technique in general: A xenograft is tissue or cells of one species grown in another, often human tumour cells in immunodeficient mice.

Series [8] is described as follows: Chemical stability in buffer solution assessed as hydrolysis at pH 1 after 4 hrs at 40 degC. It is filed as physicochemical. Conditions: read-out: solubility.
The nature of series [9]: Chemical stability in buffer solution assessed as hydrolysis at pH 2 after 4 hrs at 40 degC. Conditions: read-out: solubility. Type of series: physicochemical.
A short description of series [10]: Chemical stability in buffer solution assessed as hydrolysis at pH 4 after 4 hrs at 40 degC. It is filed as physicochemical. Conditions: read-out: solubility.
Series [11] is described as follows: Chemical stability in buffer solution assessed as hydrolysis at pH 6 after 4 hrs at 40 degC. Conditions: read-out: solubility. It is filed as physicochemical.
Series [12] in a line: Chemical stability in buffer solution assessed as hydrolysis at pH 8 after 4 hrs at 40 degC. It is filed as physicochemical. The settings on record: read-out: solubility.
The nature of series [13]: Solubility in buffer solution at pH 1 after 4 hrs at 40 degC. It is filed as physicochemical. The settings on record: pH 1, 4 h.
Series [14] is described as follows: Solubility in buffer solution at pH 2 after 4 hrs at 40 degC. The settings on record: pH 2, 4 h. Type of series: physicochemical.
The nature of series [15]: Solubility in buffer solution at pH 4 after 4 hrs at 40 degC. Type of series: physicochemical. Conditions: pH 4, 4 h.
The nature of series [16]: Solubility in buffer solution at pH 6 after 4 hrs at 40 degC. The settings on record: pH 6, 4 h. It is filed as physicochemical.
The nature of series [17]: Solubility in buffer solution at pH 8 after 4 hrs at 40 degC. The settings on record: pH 8, 4 h. Type of series: physicochemical.
Series [18] is described as follows: Stability in human liver S9 fraction assessed as hydrolysis rate at 100 uM. Type of series: ADME, subcellular. The settings on record: s9, 100 µM.
The nature of series [19]: Drug level in CD1 mouse portal blood at 14.3 mg/kg, po after 5 mins. It is filed as ADME, organism-based. Further details: dose 14.3 mg/kg, route oral. Conditions: read-out: Drug uptake.
Series [20] relates to Mus musculus. Description: Gemcitabine AUC in CD1 mouse at 14.3 mg/kg, po. Type of series: ADME, organism-based. The arrangement: dose 14.3 mg/kg, route oral. The settings on record: in vivo.
Series [21] has as its system Mus musculus. As to the kind of experiment: Gemcitabine Cmax in CD1 mouse at 14.3 mg/kg, po. Type of series: ADME, organism-based. The arrangement: dose 14.3 mg/kg, route oral. The settings on record: in vivo.
The nature of series [22]: AUC in po dosed CD1 mouse. It is filed as ADME, organism-based. The settings on record: plasma.
A short description of series [23]: Cmax in po dosed CD1 mouse. It is filed as ADME, organism-based. Further details: route oral. The settings on record: in vivo.
Series [24] is described as follows: Tmax in po dosed CD1 mouse. Type of series: ADME, organism-based. Conditions: in vivo.
The test system of series [25] is HCT-116. As to the kind of experiment: Antitumor activity in human HCT116 cells xenografted CD1 mouse assessed as maximum tumor reduction at 3.77 mg/kg, po administered daily for 14 days measured after 6 weeks. Type of series: functional. The arrangement: scale not given: the % may be the effect or the level left.
Series [26] deals with HCT-116. As to the kind of experiment: Antitumor activity in human HCT116 cells xenografted CD1 mouse assessed as maximum tumor reduction at 7.55 mg/kg, po administered daily for 14 days measured after 6 weeks. It is filed as functional. Further details: scale not given: the % may be the effect or the level left.
A short description of series [27]: Stability in CD1 mouse liver S9 fraction assessed as hydrolysis rate at 100 uM. The settings on record: s9, 100 µM. It is filed as ADME, subcellular.

Some results are limits rather than exact numbers.

In the case of `CC[C@H](C)[C@H](N)C(=O)OC[C@H]1O[C@@H](n2ccc(N)nc2=O)C(F)(F)[C@@H]1O`, the Activity amounted to 2.3 nmol/mg/min in series [1] and 3.7 nmol/mg/min in series [2]. In addition, the metabolised at 0.5 h, 96 µM in series [3] and in series [4] was 100% each time. For the same compound, in series [5], the half-life stood at 75 min.

For the compound `Cl.Nc1ccn([C@@H]2O[C@H](CO)[C@@H](O)C2(F)F)c(=O)n1` [GEMCITABINE HYDROCHLORIDE], the Drug uptake in [6] was 99 ng/mL. The Activity in series [7] is 71.5%.

Take `CCCC(CCC)C(=O)Nc1ccn([C@@H]2O[C@H](CO)[C@@H](O)C2(F)F)c(=O)n1` [LY-2334737]: the degraded at 4 h in series [8] was 21%; in [9], 12%; in [10], 2%; in series [11], 0%; in series [12], 0%. The solubility in [13] was 1.12%; in [14] it was 1.79%; in [15], over 2%; in series [16] it was over 2%. In addition, the Activity in series [17] was over 2%; in series [1], under 0.01 nmol/mg/min; in series [2], under 0.01 nmol/mg/min; in series [18] it was 27 pmol/min/mg; in series [25], 56.3%; in [26], 67.1%. In addition, the Activity in [27] was 11 pmol/mg/min. Moreover, the metabolised at 0.5 h, 96 µM in [3] and in [4] was 1% in each case. Further, in series [19], the concentration at 5 min is 653 ng/mL. Also, the AUC stood at 778 ng·h/mL in series [20] and 536 ng·h/mL in [22]. The Cmax in series [21] was 373 ng/mL; in series [23] it was 535 ng/mL. Besides, the Tmax in [24] is 30 min.
